Each structure is given as a SMILES string.

Data on two molecules can be found in US9801958B2, “Polymer nanoparticle composite and composition for MRI imaging including same” (THE UNIVERSITY OF TOKYO, priority 2013, dated 2017).

Series [1] deals with Colon26 liver metastatic tumor. To be noted: property in clinical practice; cited from earlier work.
The conditions of series [2]: mouse, in vivo. From the text: Here, the maximum tolerant dose (MTD) of MnCaP for a mouse is about 1.5 mmol/kg. In this regard, the maximum tolerant dose (MTD) of MnCl2 is about 0.22 mmol/kg, which is about 1/7 the maximum tolerant dose (MTD) of MnCaP. Therefore, the polymer nanoparticle composite of the present invention that uses MnCaP is also extremely good for practical use in MRI contrast in terms of maximum tolerant dose (MTD).

Series [3] in a line: Relaxivity measurement and T1-weighted imaging in solution, 1T MR. To be noted: 0.1-0.5 mM, distilled water. The format is physicochemical. As for the experimental part:
In order to measure the relaxivity of the produced MnCaP nanoparticle composite and compare the contrast effect with existing MnCl2 alone, a preclinical permanent magnet type 1T (Tesla) MR equipment (Icon™, Bruker-Biospin, Germany) was used to measure the relaxivity and acquire T1-weighted images for comparison. For the measurements, the MnCaP nanoparticle composite at a concentration of 0.1-0.5 mM and MnCl2 at the same concentration were used and measured in PCR sample tubes. Distilled water was used for dilution.
The relaxivity was measured using a proton volume coil (inner diameter 35 mm). As the contrast method, a rapid spin-echo technique adopting inversion pulse (Rapid Acquisition with Relaxation Enhancement, RARE) was employed. […]

Take `CCOc1ccc(C[C@@H](CN(CCN(CC(=O)[O-])CC(=O)[O-])CC(=O)[O-])N(CC(=O)[O-])CC(=O)[O-])cc1.[Gd+3].[H+].[H+]` [Gd-EOB-DTPA]: in series [1], the “appearance of normal liver region (clinical contrast agent)” value is “in white” and the “signal change in liver tumor region (clinical contrast agent)” value is reported as “almost no change”.
In the case of `[Cl][Mn][Cl]` [MnCl2], in series [2], the “MTD of MnCl2 relative to MTD of MnCaP” value is given as “about 1/7” and the “maximum tolerant dose (MTD)” value is on record as “about 0.22 mmol/kg”. For the same molecule, the “longitudinal relaxivity r1” value in series [3] lay in the range of 7.30 to 7.58 mM⁻¹ s⁻¹.
